Laboratory results reported in patent publication US7064128B2, “Preferentially substituted calcium channel blockers” (NeuroMed Technologies, Inc., priority 1998, dated 2006).
pIC50: −log10 of the molar value. Like-named read-outs stand apart in the source and are kept apart here. Each block holds one molecule with its values, some of them ahead of it.

Columns and labels:
Format in all cases: cell-based
[1] = molecular target: T1, rat α1B+α2b+β1b channels (N-type channels) (Rattus norvegicus, UniProt Q02294); test: Whole cell patch recordings, N-type calcium channel block (Examples 1 and 4); conditions: block of N-type calcium channels, HEK cells, 5 mM barium as charge carrier
T1 construct: expressed in transfected cells
Protocol: Antagonist activity was measured using whole cell patch recordings on human embryonic kidney cells either stably or transiently expressing rat α1B+α2b+β1b channels (N-type channels) with 5 mM barium as a charge carrier.
For transient expression, host cells, such as human embryonic kidney cells, HEK 293 (ATCC# CRL 1573) were grown in standard DMEM medium supplemented with 2 mM glutamine and 10% fetal bovine serum. HEK 293 cells were transfected by a standard calcium-phosphate-DNA coprecipitation method using the rat α1B+β1b+α2δ N-type calcium channel subunits in a vertebrate expression vector (for example, see Current Protocols in Molecular Biologyl ).
After an incubation period of from 24 to 72 hrs the culture medium was removed and replaced with external recording solution (see below). Whole cell patch clamp experiments were performed using an Axopatch 200B amplifier (Axon Instruments, Burlingame, Calif.) linked to an IBM compatible personal computer equipped with pCLAMP software. Borosilicate glass patch pipettes (Sutter Instrument Co., Novato, Calif.) were polished (Microforge, Narishige, Japan) to a resistance of about 4 MΩ when filled with cesium methanesulfonate internal solution (composition in MM: 109 CsCH3SO4, 4 MgCl2, 9 EGTA, 9 HEPES, pH 7.2). Cells were bathed in 5 mM Ba^++ (in mM: 5 BaCl2, 1 MgCl2, 10 HEPES, 40 tetraethylammonium chloride, 10 glucose, 87.5 CsCl pH 7.2). Current data shown were elicited by a train of 100 ms test pulses at 0.066 Hz from −100 mV and/or −80 mV to various potentials (min. −20 mV, max. +30 mV). Drugs were perfused directly into the vicinity of the cells using a microperfusion system.
Normalized dose-response curves were fit (Sigmaplot 4.0, SPSS Inc., Chicago, Ill.) by the Hill equation to determine IC50 values. Steady-state inactivation curves were plotted as the normalized test pulse amplitude following 5 s inactivating prepulses at +10 mV increments. Inactivation curves were fit (Sigmaplot 4.0) with the Boltzman equation, Ipeak (normalized)=1/(1+exp((V−Vh)z/25.6)), where V and Vh are the conditioning and half inactivation potentials, respectively, and z is the slope factor.

[2] = molecular target: T2, N-type calcium channels (α1B+α2δ+β1b cDNA subunits) (Rattus norvegicus, UniProt Q02294); test: Whole cell patch clamp, tonic and frequency dependent block, N-type channels in HEK 293 (Example 5); conditions: for % Block (100 nM) 0.03 Hz: 0.03 Hz (tonic block); for % Block (100 nM) 0.2 Hz: 0.2 Hz (frequency dependent block)
T2 construct: expressed in transfected cells
Protocol: (§1) N-type calcium channel blocking activity was assayed in human embryonic kidney cells, HEK 293, stably transfected with the rat brain N-type calcium channel subunits (α1B+α2δ+β1b cDNA subunits). Alternatively, N-type calcium channels (α1B+α2δ+β1b cDNA subunits), L-type channels (α1C+α2δ+β1b cDNA subunits) and P/Q-type channels (α1A+α2δ+β1b cDNA subunits) were transiently expressed in HEK 293 cells. Briefly, cells were cultured in Dulbecco's modified eagle medium (DMEM) supplemented with 10% fetal bovine serum, 200 U/ml penicillin and 0.2 mg/ml streptomycin at 37° C. with 5% CO2. At 85% confluency cells were split with 0.25% trypsin/1 mM EDTA and plated at 10% confluency on glass coverslips. At 12 hours the medium was replaced and the cells transiently transfected using a standard calcium phosphate protocol and the appropriate calcium channel cDNAs. Fresh DMEM was supplied and the cells transferred to 28° C./5% CO2. Cells were incubated for 1 to 2 days to whole cell recording.
(§2) Whole cell patch clamp experiments were performed using an Axopatch 200B amplifier (Axon Instruments, Burlingame, Calif.) linked to a personal computer equipped with pCLAMP software. The external and internal recording solutions contained, respectively, 5 mM BaCl2, 1 mM MgCl2, 10 mM HEPES, 40 mM TEACl, 10 mM glucose, 87.5 mM CsCl (pH 7.2) and 108 mM CsMS, 4 mM MgCl2, 9 mM EGTA, 9 mM HEPES (pH 7.2). Currents were typically elicited from a holding potential of −80 mV to +10 mV using Clampex software (Axon Instruments). Typically, currents were first elicited with low frequency stimulation (0.03 Hz) and allowed to stabilize prior to application of the compounds. The compounds were then applied during the low frequency pulse trains for two to three minutes to assess tonic block, and subsequently the pulse frequency was increased to 0.2 Hz to assess frequency dependent block. Data were analyzed using Clampfit (Axon Instruments) and SigmaPlot 4.0 (Jandel Scientific).

[3] = molecular target: P/Q-type channels (α1A+α2δ+β1b cDNA subunits) (UniProt P54282); test: Whole cell patch clamp, tonic and frequency dependent block, P/Q-type channels in HEK 293 (Example 5)
Protocol: as §1, §2
(§3) Tables 2 and 3 show the results of similar experiments conducted with P/Q-type and L-type channels expressed in HEK 293 cells.

[4] = molecular target: T3, L-type channels (α1C+α2δ+β1b cDNA subunits) (UniProt P22002); test: Whole cell patch clamp, tonic and frequency dependent block, L-type channels in HEK 293 (Example 5)
T3 construct: other: α1C (L-type), 100 nM, 0.03 Hz; other: α1C (L-type), 100 nM, 0.2 Hz; other: α1C (L-type), 0.03 Hz; other: α1C (L-type), 0.2 Hz
Protocol: as §1, §2, §3

[5] = Table 4 summary, 0.2 Hz, N-type, unit not given in Table 4 (μM in Table 1), read-out: N (IC50 values)
[6] = α1B (N-type), 0.03 Hz, read-out: Estimated IC50 (μM) 0.03 Hz
[7] = α1B (N-type), 0.2 Hz, read-out: Estimated IC50 (μM) 0.2 Hz
[8] = Table 4 summary, 0.2 Hz, P/Q-type, unit not given in Table 4 (μM in Table 2), read-out: P/Q (IC50 values)
[9] = α1A (P/Q-type), 0.03 Hz, read-out: Estimated IC50 (μM) 0.03 Hz
[10] = α1A (P/Q-type), 0.2 Hz, read-out: Estimated IC50 (μM) 0.2 Hz
[11] = Table 4 summary, 0.2 Hz, L-type, unit not given in Table 4 (μM in Table 3), read-out: L (IC50 values)
[12] = α1C (L-type), 0.03 Hz, read-out: Estimated IC50 (μM) 0.03 Hz
[13] = α1C (L-type), 0.2 Hz, read-out: Estimated IC50 (μM) 0.2 Hz

T2 sequence (Q02294 whole entry): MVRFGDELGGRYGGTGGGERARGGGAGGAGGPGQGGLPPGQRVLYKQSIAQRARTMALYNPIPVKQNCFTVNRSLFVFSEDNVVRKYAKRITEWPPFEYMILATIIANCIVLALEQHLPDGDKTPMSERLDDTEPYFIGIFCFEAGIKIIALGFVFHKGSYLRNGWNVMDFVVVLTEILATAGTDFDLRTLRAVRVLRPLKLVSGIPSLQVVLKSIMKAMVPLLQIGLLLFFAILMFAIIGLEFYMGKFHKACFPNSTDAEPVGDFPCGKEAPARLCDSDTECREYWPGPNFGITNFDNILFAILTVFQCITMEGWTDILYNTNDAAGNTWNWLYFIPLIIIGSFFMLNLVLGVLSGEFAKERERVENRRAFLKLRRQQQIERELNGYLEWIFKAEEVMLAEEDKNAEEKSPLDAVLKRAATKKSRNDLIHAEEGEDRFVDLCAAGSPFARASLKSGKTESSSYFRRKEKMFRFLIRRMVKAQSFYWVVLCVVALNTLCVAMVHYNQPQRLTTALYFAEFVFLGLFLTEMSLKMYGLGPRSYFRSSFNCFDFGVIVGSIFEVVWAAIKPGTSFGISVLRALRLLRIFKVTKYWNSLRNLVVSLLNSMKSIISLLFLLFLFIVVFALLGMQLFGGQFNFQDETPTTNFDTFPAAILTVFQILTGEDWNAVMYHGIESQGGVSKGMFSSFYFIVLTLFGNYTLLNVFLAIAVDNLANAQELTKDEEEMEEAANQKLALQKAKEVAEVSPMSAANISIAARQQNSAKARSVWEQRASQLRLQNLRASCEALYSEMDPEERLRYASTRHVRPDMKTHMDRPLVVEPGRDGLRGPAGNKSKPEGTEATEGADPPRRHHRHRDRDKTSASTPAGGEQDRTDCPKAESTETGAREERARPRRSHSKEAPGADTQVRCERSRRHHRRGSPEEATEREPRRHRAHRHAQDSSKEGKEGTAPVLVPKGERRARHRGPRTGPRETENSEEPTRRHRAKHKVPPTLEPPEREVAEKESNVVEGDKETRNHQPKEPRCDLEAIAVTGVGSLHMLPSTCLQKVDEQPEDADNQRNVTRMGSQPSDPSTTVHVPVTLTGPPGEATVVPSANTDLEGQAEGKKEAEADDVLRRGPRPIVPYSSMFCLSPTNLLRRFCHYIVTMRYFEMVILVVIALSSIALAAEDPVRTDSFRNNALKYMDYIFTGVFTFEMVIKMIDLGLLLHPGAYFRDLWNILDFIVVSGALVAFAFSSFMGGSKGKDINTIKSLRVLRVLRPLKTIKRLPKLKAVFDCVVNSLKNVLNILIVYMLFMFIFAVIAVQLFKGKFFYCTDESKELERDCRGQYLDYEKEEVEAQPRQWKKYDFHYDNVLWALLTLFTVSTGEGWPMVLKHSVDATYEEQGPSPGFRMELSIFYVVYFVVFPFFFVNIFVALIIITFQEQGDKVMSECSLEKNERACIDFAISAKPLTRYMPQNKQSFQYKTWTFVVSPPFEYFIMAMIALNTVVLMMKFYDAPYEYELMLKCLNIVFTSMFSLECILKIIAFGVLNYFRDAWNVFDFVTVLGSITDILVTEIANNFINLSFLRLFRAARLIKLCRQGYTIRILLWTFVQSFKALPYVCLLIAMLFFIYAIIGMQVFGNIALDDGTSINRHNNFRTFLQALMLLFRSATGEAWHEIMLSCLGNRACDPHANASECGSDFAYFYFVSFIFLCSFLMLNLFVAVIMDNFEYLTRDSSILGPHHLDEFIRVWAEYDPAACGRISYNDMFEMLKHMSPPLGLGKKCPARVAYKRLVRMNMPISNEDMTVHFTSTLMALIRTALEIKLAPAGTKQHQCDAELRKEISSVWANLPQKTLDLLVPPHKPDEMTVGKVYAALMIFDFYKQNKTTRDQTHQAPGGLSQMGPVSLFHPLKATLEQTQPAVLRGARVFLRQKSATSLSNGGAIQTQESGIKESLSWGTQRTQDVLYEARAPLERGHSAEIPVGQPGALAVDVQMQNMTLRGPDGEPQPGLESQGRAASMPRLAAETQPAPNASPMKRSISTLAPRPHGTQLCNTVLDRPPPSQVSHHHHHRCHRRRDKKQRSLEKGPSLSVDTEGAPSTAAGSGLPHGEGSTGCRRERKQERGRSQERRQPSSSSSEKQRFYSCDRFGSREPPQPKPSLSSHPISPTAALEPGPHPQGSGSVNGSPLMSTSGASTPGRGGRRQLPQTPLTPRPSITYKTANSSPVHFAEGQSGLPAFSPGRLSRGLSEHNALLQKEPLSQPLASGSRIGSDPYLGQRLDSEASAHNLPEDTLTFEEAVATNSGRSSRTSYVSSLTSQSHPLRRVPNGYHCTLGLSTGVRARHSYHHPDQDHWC
T2 sequence (P54290 25-944 partner limits assumed): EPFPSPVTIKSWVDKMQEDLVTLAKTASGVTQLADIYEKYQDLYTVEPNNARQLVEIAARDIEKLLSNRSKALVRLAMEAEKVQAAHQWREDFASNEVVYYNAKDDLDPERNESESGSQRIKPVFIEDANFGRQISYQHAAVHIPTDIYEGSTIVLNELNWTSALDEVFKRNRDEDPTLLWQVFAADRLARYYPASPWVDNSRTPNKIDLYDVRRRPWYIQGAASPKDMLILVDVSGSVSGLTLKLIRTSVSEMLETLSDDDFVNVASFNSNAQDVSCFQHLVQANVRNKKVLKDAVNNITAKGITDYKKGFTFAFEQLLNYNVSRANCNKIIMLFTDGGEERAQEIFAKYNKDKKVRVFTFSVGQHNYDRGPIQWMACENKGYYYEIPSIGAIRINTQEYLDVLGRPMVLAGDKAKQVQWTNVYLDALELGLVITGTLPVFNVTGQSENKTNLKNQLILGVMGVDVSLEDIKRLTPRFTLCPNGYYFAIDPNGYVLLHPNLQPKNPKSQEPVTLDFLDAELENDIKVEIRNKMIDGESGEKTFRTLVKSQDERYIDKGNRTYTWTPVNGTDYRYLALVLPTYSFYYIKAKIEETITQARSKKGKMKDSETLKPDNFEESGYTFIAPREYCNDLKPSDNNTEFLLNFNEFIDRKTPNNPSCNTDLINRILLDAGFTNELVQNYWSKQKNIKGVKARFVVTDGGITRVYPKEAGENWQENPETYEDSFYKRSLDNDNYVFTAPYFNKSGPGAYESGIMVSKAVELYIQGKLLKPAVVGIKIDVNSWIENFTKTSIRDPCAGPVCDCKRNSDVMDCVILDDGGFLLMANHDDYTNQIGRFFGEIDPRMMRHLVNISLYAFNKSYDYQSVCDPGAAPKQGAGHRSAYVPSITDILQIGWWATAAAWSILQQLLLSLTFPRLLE
T2 sequence (P54290 945-1091 partner limits assumed): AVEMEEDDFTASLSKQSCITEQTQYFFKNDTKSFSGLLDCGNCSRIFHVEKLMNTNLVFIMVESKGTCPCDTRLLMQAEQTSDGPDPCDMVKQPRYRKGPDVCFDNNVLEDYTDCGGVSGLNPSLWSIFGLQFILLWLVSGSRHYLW
T2 sequence (P54283 whole entry partner): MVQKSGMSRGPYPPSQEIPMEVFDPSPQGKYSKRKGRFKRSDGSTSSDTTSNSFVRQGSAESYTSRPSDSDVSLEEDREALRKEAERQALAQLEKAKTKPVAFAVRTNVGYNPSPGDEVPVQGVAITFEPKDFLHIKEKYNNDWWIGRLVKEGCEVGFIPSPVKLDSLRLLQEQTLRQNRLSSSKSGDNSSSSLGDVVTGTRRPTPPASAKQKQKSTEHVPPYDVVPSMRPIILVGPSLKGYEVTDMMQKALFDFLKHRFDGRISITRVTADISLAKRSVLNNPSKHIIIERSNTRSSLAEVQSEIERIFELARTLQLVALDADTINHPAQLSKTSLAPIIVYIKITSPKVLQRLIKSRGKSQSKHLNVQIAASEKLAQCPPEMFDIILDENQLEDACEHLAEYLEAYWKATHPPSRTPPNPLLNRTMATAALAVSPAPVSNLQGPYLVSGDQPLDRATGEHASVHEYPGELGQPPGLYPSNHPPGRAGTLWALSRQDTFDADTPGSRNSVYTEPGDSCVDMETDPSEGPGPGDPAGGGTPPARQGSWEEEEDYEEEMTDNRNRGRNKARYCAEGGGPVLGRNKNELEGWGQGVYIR
T1 sequence (Q02294 whole entry): as the sequence (Q02294 whole entry) above
T1 sequence (P54290 25-944 partner limits assumed): as the sequence (P54290 25-944 partner limits assumed) above
T1 sequence (P54290 945-1091 partner limits assumed): as the sequence (P54290 945-1091 partner limits assumed) above
T1 sequence (P54283 whole entry partner): as the sequence (P54283 whole entry partner) above

SMILES: O=C(C(c1ccccc1)C1CCCCC1)N1CCN(CC=Cc2ccccc2)CC1 (centres unmarked) [Φ, Cy; CHCO; N; 1; CH═CHΦ]
pIC50 [1]: 5.23

SMILES: c1ccc(C(CN2CCN(CC(c3ccccc3)C3CCCCC3)CC2)c2ccccc2)cc1 (centres unmarked) [Φ, Cy; CHCH2; N; 1; CHΦ2]
pIC50 [1]: 4.70

SMILES: COc1ccc(/C=C/C(=O)N2CCN(C(=O)CCCCC(c3ccccc3)c3ccccc3)CC2)cc1 [SH-123A]
IC50 [2, 5]: 0.09 µM
% Block (100 nM) 0.03 Hz ([2]; α1B (N-type)): 19%
% Block (100 nM) 0.2 Hz ([2]; α1B (N-type)): 55%
IC50 [2, 6]: 0.47 µM
IC50 [2, 7]: 0.09 µM
IC50 [3, 8]: 0.07 µM
% Block (100 nM) 0.03 Hz ([3]; α1A (P/Q-type), 0.03 Hz): 29%
% Block (100 nM) 0.2 Hz ([3]; α1A (P/Q-type), 0.2 Hz): 61%
IC50 [3, 9]: 0.26 µM
IC50 [3, 10]: 0.07 µM
IC50 [4, 11]: 0.25 µM
% Block (100 nM) 0.03 Hz ([4]; α1C (L-type), 0.03 Hz): 21%
% Block (100 nM) 0.2 Hz ([4]; α1C (L-type), 0.2 Hz): 37%
IC50 [4, 12]: 0.62 µM
IC50 [4, 13]: 0.25 µM

SMILES: c1ccc(CNC2CCN(CCC(c3ccccc3)c3ccccc3)CC2)cc1 [Φ, Φ; CH(CH2)2; CHNH; 1; Φ]
pIC50 [1]: 5.70

SMILES: O=C(CCCCC(c1ccccc1)c1ccccc1)N1CCC(NCC2CCCCC2)CC1 [Φ, Φ; CH(CH2)4CO; CHNH; 1; Cy]
pIC50 [1]: 6.12

More lines, now with the values ahead:

pIC50 [1]: 5.28
SMILES: C(CCN1CCN(CC2CCCCC2)CC1)=C(c1ccccc1)c1ccccc1 [Φ, Φ; C═CH(CH2)2; N; 1; Cy]

pIC50 [1]: ~5.52
SMILES: c1ccc(CNC2CCN(CC(c3ccccc3)c3ccccc3)CC2)cc1 [Φ, Φ; CHCH2; CHNH; 1; Φ]

pIC50 [1]: 4.99
SMILES: O=C(CCCCCC(c1ccccc1)C1CCCCC1)N1CCN(C(c2ccccc2)c2ccccc2)CC1 (centres unmarked) [Φ, Cy; CH(CH2)5CO; N; 0; CHΦ2]

IC50 [2, 5]: 0.14 µM
% Block (100 nM) 0.03 Hz ([2]; α1B (N-type)): 14%
% Block (100 nM) 0.2 Hz ([2]; α1B (N-type)): 44%
IC50 [2, 6]: 0.63 µM
IC50 [2, 7]: 0.14 µM
IC50 [3, 8]: 0.15 µM
% Block (100 nM) 0.03 Hz ([3]; α1A (P/Q-type), 0.03 Hz): 18%
% Block (100 nM) 0.2 Hz ([3]; α1A (P/Q-type), 0.2 Hz): 42%
IC50 [3, 9]: 0.52 µM
IC50 [3, 10]: 0.15 µM
IC50 [4, 11]: 1.4 µM
% Block (100 nM) 0.03 Hz ([4]; α1C (L-type), 0.03 Hz): 4%
% Block (100 nM) 0.2 Hz ([4]; α1C (L-type), 0.2 Hz): 8%
IC50 [4, 12]: 2.8 µM
IC50 [4, 13]: 1.4 µM
SMILES: CC(=O)Nc1ccc(/C=C/C(=O)N2CCN(C(=O)CCCCC(c3ccccc3)c3ccccc3)CC2)cc1 [SH-136]

pIC50 [1]: ~5.30
SMILES: c1ccc(CN2CCN(CC(c3ccccc3)C3CCCCC3)CC2)cc1 (centres unmarked) [Φ, Cy; CHCH2; N; 1; Φ]
